In test [1] the test system is PKC-β. The experiment in a line: In vitro competition with anti-PKC-β antibody, Protocol A, IMR-32 cells. The test is classed as binding, human. The settings on record: for Band Intensity / Inhibition (%) / Relative Intensity (%): PKC-β, IMR-32, Table 6. The procedure: (§1) Cell lysates from either IMR-32 (human neuroblastoma) cells or C6Cx43 cells (rat glioma transfected cells overexpressing connexin 43) were obtained using standard protocols and the proteins of the lysate were separated by SDS PAGE electrophoresis and electrotransferred onto a nitrocellulose membrane. The membrane was incubated for 30 minutes in blocking buffer (TBST) containing the test peptide at either 5× or 20× the concentrations of the primary antibody. A primary polyclonal antibody specific for PKC-α (Santa Cruz Biotechnology, Inc., CA) was then added (15 μg/ml) and the membrane incubated for a further 45 minutes. Finally, the primary antibody was detected with a secondary antibody conjugated to alkaline phosphatase using standard procedures. The intensity of the band corresponding to PKC-α was assessed by scanning and densitometry using the Gel-Pro software (Media Cybernetics) to obtain relative band intensities (average of 3 replicas). Control assays were conducted as described above except that blocking buffer without peptide was used.
Peptides PRE 1, PRE 2 and PRE 3 (see Table 3) were tested for their ability to interfere with the binding of a PKC-β-specific polyclonal antibody (Santa Cruz Biotechnology, Inc.) to PKC-β using the general protocol described in Example 1. […] It is worth noting in this regard that PKC-α and PKC-β belong to the same sub-group of PKCs (cPKCs).

For test [2], the target named is T1, PKC-α (Homo sapiens, UniProt P17252). Nature of the test: In vitro competition with anti-PKC-α antibody, Protocol B (peptide added to cell extract before electrophoresis), IMR-32 cells. Format: binding. The arrangement: subcellular localisation of endogenous PKC-α in IMR-32 cells; endogenous in cells; host or cells: IMR-32. The procedure: Peptides PRE 3 and PRE 4 (see Table 3) were tested for their ability to interfere with the binding of isoform-specific polyclonal antibodies (Santa Cruz Biotechnology, Inc.) to PKC-α, PKC-βI or PKC-βII using the general protocol described in Example 3.

For test [3], the system named is PKC-ε. Nature of the test: In vitro competition with anti-PKC-ε antibody, Protocol B, IMR-32 cells. Format: binding, human. How it is done:
(§2) The ability of the peptides PRE 2 and PRE 3 (see Table 3) to interfere with the binding of a PKC-α-specific polyclonal antibody (Santa Cruz Biotechnology, Inc.) to PKC-α was determined using a modified version of the protocol outlined above in which the test peptide was added directly to the cell extract prior to electrophoresis at a concentration of either 5× or 15× the concentration of the protein applied to each well of the gel for the Western blots (20 μg).
Peptides PRE 2, PRE 3 and PRE 4 (see Table 3) were tested for their ability to interfere with the binding of isoform-specific polyclonal antibodies (Santa Cruz Biotechnology, Inc.) to PKC-ε using the general protocol described in Example 3. Two bands, representing alternate splicing variants of PKC-ε, were identified on the Western blot using this anti-PKC-ε antibody.

For test [4], the system named is PKC-β. The experiment in a line: In vitro competition with anti-PKC-β antibody, Protocol B, IMR-32 cells. Format: binding, human. The procedure:
as §2
Peptides PRE 2 and PRE 3 (see Table 3) were tested for their ability to interfere with the binding of a PKC-β-specific polyclonal antibody (Santa Cruz Biotechnology, Inc.) to PKC-β using the general protocol described in Example 3.

In test [5] the target is T1, PKC-α. Nature of the test: In vitro competition with anti-PKC-α antibody on blotted cell lysate, Protocol A, IMR-32 cells. The test is classed as binding. The arrangement: subcellular localisation of endogenous PKC-α in IMR-32 cells; endogenous in cells; host or cells: IMR-32. The settings on record: Protocol A; for Band Intensity / Inhibition (%) / Relative Intensity (%): IMR-32, Table 4. How it is done: The ability of the peptides to interfere with the binding of a PKC-α-specific monoclonal antibody to PKC-α was determined using the following protocol.
as §1, with “The membrane was incubated for 30 minutes in blocking buffer (TBST) containing the test peptide at either 5× or 20× the concentrations of the primary antibody.” left out
The results are expressed as relative band intensity and as a percentage of the intensity of the corresponding band in the control assay (“Relative intensity (%)”). “% inhibition” relates to the percentage of the PKC-α band that is inaccessible to the antibody.

Test [6] deals with LS180 colon cancer tumours. The experiment in a line: LS180 colon cancer tumours in mice, combination with doxorubicin. The test is classed as in vivo. Conditions: mice treated with only doxorubicin (and control cohorts). From the text:
Both in vitro and in vivo data support the efficacy of PhGα1 in limiting the effect of multi-drug resistance (MDR) in colorectal drug-resistant tumours when used in combination treatment with chemotherapy. Specifically, studies have shown that establishment of LS180 colon cancer tumours in mice (M1 stage) treated with PhGα1 in combination with an anthracycline chemotherapeutic, doxorubicin, was delayed approximately 100% (p<0.03) versus control cohorts and mice treated with only doxorubicin (28 days compared to 14 days). Results were also observed for tumour transition from the M1 to M2 stage.

Where no end group is shown, it is not given here.

Take KDAQNLIGISL-NH2 [PRE 2]: the “effect on antibody binding to PKC-β” value in test [1] and in test [4] was “some cross reactivity” in each case. Also, the “Band Intensity” value came out at 0.800 in test [1] (75 μg); 0.403 in test [1] (300 μg); 0.0103 in test [2] (100 μg, PKC-α, IMR-32, Table 7); 0.0322 in test [4] (100 μg, PKC-β, IMR-32, Table 8); 0.917 in test [5] (75 μg peptide); 0.192 in test [5] (300 μg peptide). Also, the “Inhibition (%)” value in test [1] (75 μg) is 31.0%; in test [1] (300 μg), 65.3%; in test [2] (100 μg, PKC-α, IMR-32, Table 7), 99.9%; in test [4] (100 μg, PKC-β, IMR-32, Table 8), 54.7%; in test [5] (75 μg peptide), 56.1%; in test [5] (300 μg peptide) it was 90.9%. Besides, the “Relative Intensity (%)” value in test [1] (75 μg) is recorded as 69.0%; in test [1] (300 μg) it was 34.7%; in test [2] (100 μg, PKC-α, IMR-32, Table 7) it was 0.135%; in test [4] (100 μg, PKC-β, IMR-32, Table 8), 45.3%; in test [5] (75 μg peptide), 43.9%; in test [5] (300 μg peptide), 9.1%. Besides, the “effect on antibody binding to PKC-α” value is “effectively interfered with PKC-α antibody binding to PKC-α” in test [2] and “mask the antigenic site of PKC-α” in test [5]. Also, the “effect on antibody binding to PKC-ε” value in test [3] is on record as “some cross-reactivity with PKC-ε”.
With `COc1cccc2c1C(=O)c1c(O)c3c(c(O)c1C2=O)C[C@@](O)(C(=O)CO)C[C@@H]3O[C@H]1C[C@H](N)[C@H](O)[C@H](C)O1` [doxorubicin], the “time to establishment of LS180 tumours (M1 stage)” value in test [6] was determined as 14 days.

Source of the values: patent publication US20100041597A1, “PEPTIDES TARGETED TO PROTEIN KINASE C ISOFORMS AND USES THEREOF” (priority 2005, published 2010).
